The subject of one data set is MDA-MB-436 cells. Nature of the data set: Inhibition of proliferation of MDA-MB-436 cells (CellTiter-Glo). It is filed as cell-based. The note with it: Homo sapiens, MDA-MB-436, 168 h, 7 days incubation. On the procedure:
• 1. Cell Pretreatment: MDA-MB-436 cells were cultured in DMEM + 10% FBS + 1% penicillin-dip antibiotics + 1% ITS + 16 µg/ml glutathione. Cells in the logarithmic growth phase were digested with trypsin-EDTA, centrifuged and resuspended, and then seeded at a rate of 500-1000 cells/well in sterile 96-well opaque plates, 90 µl per well. After seeding, the cell culture plates were incubated overnight at 37°C with 5% CO2 before drug treatment. • 2. Drug treatment of MDA-MB-436 cells: The test compound was prepared as a 10 mM stock solution using DMSO. The drug was then diluted to a 10× working solution using growth medium (the compound was started at 100 µM and diluted 4-fold to achieve 9 concentrations). 10 µl of the 10× working solution was added to each well to achieve final drug concentrations of 10000, 2500, 625, 156, 39, 9.7, 2.4, 0.61, and 0.152 nM, respectively. Blank control wells containing the same DMSO concentration were also included, with three replicates for each concentration. After drug addition, the cells were incubated at 37°C with 5% CO2 for 7 days. • 3. After incubation, 100 µl of CellTiter-Glo® Reagent was added to each well, and luminescence was measured. The IC50 value of cell proliferation inhibition was calculated using GraphPad software to fit the curve. Table E: Results of the inhibitory effect of the compound of this invention on the proliferation of MDA-MB-436 cells.

A further data set concerns DLD-1 BRCA2(-/-) cells. Nature of the data set: Inhibition of proliferation of DLD-1 BRCA2(-/-) cells (CTG method). The class given is cell-based. The note with it: Homo sapiens, DLD-1, 168 h; 7 days incubation, CellTiter-Glo. On the procedure: • 1. Cell Pretreatment: DLD-1 BRCA2(-/-) cells were cultured in growth medium 1640 + 10% FBS (fetal bovine serum) + 1% Penicillin-Streptomycin. Cells in the logarithmic growth phase were digested with trypsin-EDTA, centrifuged, and resuspended. DLD-1 BRCA2(-/-) cells were seeded at 1,000 cells/well in sterile 96-well opaque plates, 75 µl per well. After seeding, the cell culture plates were incubated overnight at 37 °C with 5% CO2 before adhesion, followed by treatment with the test compounds. • 2. DLD-1 BRCA2(-/-) Cell Drug Treatment: The test compound was prepared as a 10 mM stock solution using DMSO. The test compound was then diluted to a 4× working solution using growth medium (starting at 40 µM, with 9 4-fold dilutions). 25 µl of 4× working solution was added to each well to achieve final concentrations of 10000, 2500, 625, 156, 39, 9.7, 2.4, 0.61, and 0.152 nM, respectively. Blank control wells containing the same DMSO concentration were also included, with three replicates for each concentration. After adding the test compound, the cells were incubated at 37 °C with 5% CO2 for 7 days. • 3. After incubation, 100 µl of CellTiter-Glo® Reagent was added to each well, and […] intensity was measured. A curve was fitted using GraphPad software, and the IC50 value for cell proliferation inhibition was calculated.

Another data set concerns the target PARP2 (Homo sapiens, UniProt Q9UGN5). Briefly: biochemical.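 Further: PARP2 enzyme ELISA on histone-coated plates, Strep-HRP detection with chemiluminescence read-out, 10 min compound preincubation with enzyme, inhibition scaled between Max and Min signal controls.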
In another data set the target is PARP1 (Homo sapiens, UniProt P09874). Nature of the data set: Inhibition of PARP1 enzyme activity (ELISA, chemiluminescence). Particulars: for IC50: ELISA, histone-coated plate, NAD+, 60 min at 25 °C; for Selectivity PARP2/PARP1: ratio of PARP2 IC50 to PARP1 IC50. The class given is biochemical.
A short description of data set [1]: Pharmacokinetics in mice after intravenous injection or gavage. The note with it: BALB/c, mouse, plasma.

PARP1, sequence (P09874 whole entry): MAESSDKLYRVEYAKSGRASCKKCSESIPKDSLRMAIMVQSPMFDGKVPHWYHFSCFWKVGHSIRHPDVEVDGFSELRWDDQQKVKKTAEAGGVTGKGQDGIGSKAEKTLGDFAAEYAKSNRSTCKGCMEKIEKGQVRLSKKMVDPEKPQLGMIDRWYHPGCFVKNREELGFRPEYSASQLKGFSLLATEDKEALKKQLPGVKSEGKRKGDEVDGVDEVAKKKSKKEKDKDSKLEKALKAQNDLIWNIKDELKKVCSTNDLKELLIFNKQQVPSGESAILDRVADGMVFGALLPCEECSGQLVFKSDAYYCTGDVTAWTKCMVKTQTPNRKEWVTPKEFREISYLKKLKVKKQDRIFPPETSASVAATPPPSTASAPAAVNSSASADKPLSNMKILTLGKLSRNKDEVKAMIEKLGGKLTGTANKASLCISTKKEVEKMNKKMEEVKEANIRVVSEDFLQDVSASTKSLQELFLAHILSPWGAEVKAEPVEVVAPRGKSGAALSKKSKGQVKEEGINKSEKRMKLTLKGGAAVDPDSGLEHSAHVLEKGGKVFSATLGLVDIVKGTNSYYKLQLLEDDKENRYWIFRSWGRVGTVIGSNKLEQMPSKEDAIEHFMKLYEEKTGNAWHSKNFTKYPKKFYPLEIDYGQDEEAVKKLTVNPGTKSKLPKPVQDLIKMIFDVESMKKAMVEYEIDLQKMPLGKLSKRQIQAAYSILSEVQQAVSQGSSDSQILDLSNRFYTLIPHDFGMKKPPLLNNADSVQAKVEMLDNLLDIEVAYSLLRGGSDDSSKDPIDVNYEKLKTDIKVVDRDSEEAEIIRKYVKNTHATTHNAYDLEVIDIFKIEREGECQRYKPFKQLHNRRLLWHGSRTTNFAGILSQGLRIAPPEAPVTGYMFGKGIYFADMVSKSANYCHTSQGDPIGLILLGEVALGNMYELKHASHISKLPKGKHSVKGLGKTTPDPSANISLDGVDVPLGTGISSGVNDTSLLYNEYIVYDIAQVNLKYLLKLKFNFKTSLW
PARP2, sequence (Q9UGN5 whole entry): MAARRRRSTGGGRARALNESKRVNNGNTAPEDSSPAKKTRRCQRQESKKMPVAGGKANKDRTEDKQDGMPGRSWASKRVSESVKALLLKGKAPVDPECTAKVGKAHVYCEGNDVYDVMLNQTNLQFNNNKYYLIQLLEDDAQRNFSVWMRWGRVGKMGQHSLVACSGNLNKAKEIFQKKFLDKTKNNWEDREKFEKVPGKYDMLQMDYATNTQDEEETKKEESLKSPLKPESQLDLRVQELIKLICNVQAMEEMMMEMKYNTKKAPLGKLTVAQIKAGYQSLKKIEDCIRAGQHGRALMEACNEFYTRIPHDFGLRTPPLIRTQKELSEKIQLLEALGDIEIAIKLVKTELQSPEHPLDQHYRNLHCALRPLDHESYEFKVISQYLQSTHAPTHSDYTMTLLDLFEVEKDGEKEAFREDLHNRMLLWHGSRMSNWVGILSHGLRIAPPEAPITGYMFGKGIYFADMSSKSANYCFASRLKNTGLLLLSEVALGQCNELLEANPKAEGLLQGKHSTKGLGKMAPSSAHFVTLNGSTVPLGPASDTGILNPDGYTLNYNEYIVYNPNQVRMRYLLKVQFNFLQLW
Method for PARP1: (§1) Experimental Objective: To evaluate the inhibitory effect of the compounds of the present invention on the enzyme activities of PARP1 and PARP2 using ELISA.
(§2) • 1. histone-coated 384-well plates was prepared: 25 µL of histone solution was added to each well and incubated overnight at 4 °C. • 2. PBST buffer, blocking buffer (PBS buffer with 5% BSA and 0.05% Tween-20 added) and detection buffer (20 mM HEPES pH 7.5 + 100 mM NaCl + 2 mM DTT + 0.002% Tween-20 + 0.1% BSA) were prepared. • 3. The histone-coated 3 84-well plate was washed three times with PBST buffer, blocked at room temperature with 50 µL blocking buffer for 1 hour, and then washed three times with PBST buffer. • 4. Test compounds were prepared as 2000-fold stock solutions in DMSO. 50 nL of the stock solution was mixed with 19.95 µL detection buffer, and 5 µL of the gradient-diluted test compound was transferred to each well. • 5. Enzymatic reaction (PARP1): PARP1 & DNA mix was pre-incubated at 25 °C for 10 minutes. 10 µL of the PARP1 & DNA mix was added to each well and incubated with the test compound at room temperature for 10 minutes. […] Finally, the 384-well plate was washed three times with PBST buffer. Enzymatic reaction (PARP2): PARP2 was pre-incubated at 25 °C for 10 minutes. 10 µL of PARP2 was added to each well and incubated with the test compound at room temperature for 10 minutes. […] Finally, the 384-well plate was washed three times with PBST buffer. • 6. Detection (PARP1): 20 µL of anti-Poly/Mono-ADP Ribose Rabbit mAb was added and incubated at room temperature for 1.5 hours, followed by three washes of the 384-well plate with PBST buffer. Then, 20 µL of diluted anti-rabbit IgG, HRP-linked Antibody (diluted 1:2000 in blocking buffer) was added and incubated at room temperature for 1 hour. After washing the plate three times with PBST buffer, 25 µL of a 1:1 mixture of Femto-ECL Substrate A and Femto-ECL Substrate B was added. Detection (PARP2): 25 µL of Strep-HRP was added and incubated at room temperature for 1 hour, followed by three washes of the 384-well plate with PBS buffer. Then, 25 µL of a 1:1 mixture of Femto-ECL Substrate A and Femto-ECL Substrate B was added. • 7. Chemiluminescence intensity was measured using an Envision multimode microplate reader. • 8. Data Processing
(§3) The inhibition rate was calculated in Excel using formula (1). inh% = (Max−Signal)/(Max−Min)*100 [formula]
(§4) The IC50 value was obtained by fitting the data in XL-Fit using formula (2). Y = bottom + (top−bottom)/(1+(IC50/X)*HillSlope); [formula] wherein Y is the inhibition percentage and X is the compound concentration.
Method for PARP2: as §1, §2, §3, §4

For `CNC(=O)c1ccc(N2CCN(Cc3cc(Nc4ccccc4)c4nc(C)c(=O)[nH]c4c3)CC2)c(F)n1` [Example 5, 6-fluoro-N-methyl-5-(4-((2-methyl-3-oxo-8-(phenylamino)-3,4-dihydroquinoxalin-6-yl)methyl)piperazin-1-yl)picolinamide], the IC50 in the data set with MDA-MB-436 cells is less than 0.038 nM; in the data set on DLD-1 BRCA2(-/-) cells, 6.1 nM.

`CNC(=O)c1ccc(N2CCN(Cc3cc(OC(F)F)c4nc(C)c(=O)[nH]c4c3F)CC2)c(F)n1` [Example 14, 5-(4-((8-(difluoromethoxy)-5-fluoro-2-methyl-3-oxo-3,4-dihydroquinoxalin-6-yl)methyl)piperazin-1-yl)-6-fluoro-N-methylpicolinamide]: the IC50 with DLD-1 BRCA2(-/-) cells amounted to 9.3 nM; against PARP2, 9660 nM; against PARP1 it was 27.7 nM. Besides, the “Selectivity PARP2/PARP1” value at PARP1 was found to be 348.3. For the same compound, the AUC(0-t) in data set [1] (iv, 2 mg/kg) is 4680 ng·h/mL; in data set [1] (po, 5 mg/kg), 16200 ng·h/mL. The Cmax in data set [1] (iv, 2 mg/kg) turned out to be 2080 ng/mL; in data set [1] (po, 5 mg/kg) it was 3830 ng/mL. In addition, the half-life was 3.3 h in data set [1] (iv, 2 mg/kg) and 3.3 h in data set [1] (po, 5 mg/kg).

`CNC(=O)c1ccc(C2=CCN(Cc3cc(OC(F)F)c4nc(C)c(=O)[nH]c4c3F)CC2)c(F)n1` [Example 16, 1'-((8-(difluoromethoxy)-5-fluoro-2-methyl-3-oxo-3,4-dihydroquinoxalin-6-yl)methyl)-2-fluoro-N-methyl-1',2',3',6'-tetrahydro-[3,4'-bipyridine]-6-carboxamide]: the IC50 in the data set on MDA-MB-436 cells is 6.2 nM; at PARP2 it was more than 10000 nM; on PARP1 it was 2.8 nM. In addition, at PARP1, the “Selectivity PARP2/PARP1” value was more than 3625.

For the compound `CNC(=O)c1ccc(N2CCN(Cc3cc(C#CC4CC4)c4nc(C)c(=O)[nH]c4c3F)CC2)c(F)n1` [Example 22, 5-(4-((8-(cyclopropylethynyl)-5-fluoro-2-methyl-3-oxo-3,4-dihydroquinoxalin-6-yl)methyl)piperazin-1-yl)-6-fluoro-N-methylpicolinamide], the IC50 with DLD-1 BRCA2(-/-) cells is 31.8 nM; at PARP2, more than 10000 nM; on PARP1, 5.5 nM. On PARP1, the “Selectivity PARP2/PARP1” value was 1813.7.

Regarding `CC#Cc1cc(CN2CCN(c3ccc(OC(F)F)nc3)CC2)cc2[nH]c(=O)c(C)nc12` [Example 37, 7-((4-(6-(difluoromethoxy)pyridin-3-yl)piperazin-1-yl)methyl)-3-methyl-5-(prop-1-yn-1-yl)quinoxalin-2(1H)-one], the IC50 was determined as 1910 nM against PARP2 and 12.9 nM against PARP1. For the same compound, the “Selectivity PARP2/PARP1” value on PARP1 is given as 148.2.

Compound `CC#Cc1cc(CN2CCN(c3ccc(C(=O)NC)nc3)CC2)c(F)c2[nH]c(=O)c(C)nc12` [Example 40, 5-(4-((5-fluoro-2-methyl-3-oxo-8-(prop-1-yn-1-yl)-3,4-dihydroquinoxalin-6-yl)methyl)piperazin-1-yl)-N-methylpicolinamide] registered an IC50 at PARP2 of more than 10000 nM. For the same compound, on PARP1, the IC50 is 5.7 nM and the “Selectivity PARP2/PARP1” value is more than 1756.9.

In turn, `CC#Cc1cc(CN2CCN(c3ccc(C(=O)NC)nc3F)CC2)c(F)c2[nH]c(=O)c(C3CC3)nc12` [Example 48, 5-(4-((2-cyclopropyl-5-fluoro-3-oxo-8-(prop-1-yn-1-yl)-3,4-dihydroquinoxalin-6-yl)methyl)piperazin-1-yl)-6-fluoro-N-methylpicolinamide] displayed an IC50 in the data set on DLD-1 BRCA2(-/-) cells of 23.6 nM.

For the compound `CC#Cc1cc(CN2CC=C(c3ccc(C(=O)NC)nc3)CC2)c(F)c2[nH]c(=O)c(C)nc12` [Example 50, 1'-((5-fluoro-2-methyl-3-oxo-8-(prop-1-yn-1-yl)-3,4-dihydroquinoxalin-6-yl)methyl)-N-methyl-1',2',3',6'-tetrahydro-[3,4'-bipyridine]-6-carboxamide], the IC50 against PARP2 is more than 10000 nM; at PARP1 it was 3.3 nM. In addition, the “Selectivity PARP2/PARP1” value at PARP1 was more than 3042.

`CC#Cc1cc(CN2CC=C(c3ccc(C(=O)NC)nc3)CC2)cc2[nH]c(=O)c(C)nc12` [Example 51, N-methyl-1'-((2-methyl-3-oxo-8-(prop-1-yn-1-yl)-3,4-dihydroquinoxalin-6-yl)methyl)-1',2',3',6'-tetrahydro-[3,4'-bipyridine]-6-carboxamide] gave an IC50 on PARP2 of 1420 nM. Also, at PARP1, inhibition was half-maximal at 7.2 nM (IC50) and the “Selectivity PARP2/PARP1” value came out at 198.0.

In the case of `CNC(=O)c1ccc(C2=CCN(Cc3cc(OC(F)F)c4nc(C)c(=O)[nH]c4c3)CC2)c(C)n1` [Example 58, 1'-((8-(difluoromethoxy)-2-methyl-3-oxo-3,4-dihydroquinoxalin-6-yl)methyl)-N,2-dimethyl-1',2',3',6'-tetrahydro-[3,4'-bipyridine]-6-carboxamide], the IC50 in the data set on DLD-1 BRCA2(-/-) cells is 13.6 nM; against PARP2 it was 2480 nM; on PARP1 it was 1.1 nM. For the same compound, the “Selectivity PARP2/PARP1” value at PARP1 is given as 2192.4.

Compound `CNC(=O)c1ccc(C2=CCN(Cc3cc(OC(F)F)c4nc(C)c(=O)[nH]c4c3F)CC2)c(C)n1` [Example 62, 1'-((8-(difluoromethoxy)-5-fluoro-2-methyl-3-oxo-3,4-dihydroquinoxalin-6-yl)methyl)-N,2-dimethyl-1',2',3',6'-tetrahydro-[3,4'-bipyridine]-6-carboxamide] came in with an IC50 against PARP2 of more than 10000 nM. Moreover, at PARP1, the IC50 is 6.4 nM and the “Selectivity PARP2/PARP1” value is more than 1554.

Regarding `CNC(=O)c1ccc(N2CCN(Cc3cc(OC(F)(F)F)c4nc(C)c(=O)[nH]c4c3)CC2)c(C)n1` [Example 64, N,6-dimethyl-5-(4-((2-methyl-3-oxo-8-(trifluoromethoxy)-3,4-dihydroquinoxalin-6-yl)methyl)piperazin-1-yl)picolinamide], the results for the IC50 in the data set with DLD-1 BRCA2(-/-) cells, against PARP2 and against PARP1 were 9.8 nM, 169 nM and 3.6 nM, respectively. On PARP1, the “Selectivity PARP2/PARP1” value was found to be 46.9.

For `CCONC(=O)c1ccc(N2CCN(Cc3cc(OC(F)F)c4nc(C)c(=O)[nH]c4c3)CC2)c(F)n1` [Example 65, 5-(4-((8-(difluoromethoxy)-2-methyl-3-oxo-3,4-dihydroquinoxalin-6-yl)methyl)piperazin-1-yl)-N-ethoxy-6-fluoropicolinamide], the IC50 in the data set with DLD-1 BRCA2(-/-) cells worked out at 4.27 nM; on PARP2, 80 nM; at PARP1 it was 1.9 nM. Further, the “Selectivity PARP2/PARP1” value on PARP1 is 42.1.

Consider `CCNNC(=O)c1ccc(N2CCN(Cc3cc(OC(F)F)c4nc(C)c(=O)[nH]c4c3)CC2)c(F)n1` [Example 66, 5-(4-((8-(difluoromethoxy)-2-methyl-3-oxo-3,4-dihydroquinoxalin-6-yl)methyl)piperazin-1-yl)-N'-ethyl-6-fluoropicolinohydrazide], for which the IC50 with DLD-1 BRCA2(-/-) cells stood at 7.02 nM; against PARP2, 143 nM; at PARP1, 2.4 nM. The “Selectivity PARP2/PARP1” value at PARP1 came to 59.6.

`CC#Cc1cc(CN2CC=C(c3ccc(C(=O)NC4CC4)nc3)CC2)c(F)c2[nH]c(=O)c(C)nc12` [Example 67, N-cyclopropyl-1'-((5-fluoro-2-methyl-3-oxo-8-(prop-1-yn-1-yl)-3,4-dihydroquinoxalin-6-yl)methyl)-1',2',3',6'-tetrahydro-[3,4'-bipyridine]-6-carboxamide]: the IC50 at PARP2 was more than 10000 nM. Besides, on PARP1, the IC50 was 6.9 nM and the “Selectivity PARP2/PARP1” value is more than 1444.

Take `CNC(=O)c1ccc(N2CCN(Cc3cc(-c4ccc(OC)cc4)c4nc(C)c(=O)[nH]c4c3)CC2)c(F)n1` [Example 69, 6-fluoro-5-(4-((8-(4-methoxyphenyl)-2-methyl-3-oxo-3,4-dihydroquinoxalin-6-yl)methyl)piperazin-1-yl)-N-methylpyridine amide]: the IC50 in the data set on DLD-1 BRCA2(-/-) cells amounted to 32.6 nM; at PARP2 it was 8820 nM; against PARP1, 3.2 nM. At PARP1, the “Selectivity PARP2/PARP1” value is reported as 2751.7.

The compound `CNC(=O)c1ccc(N2CCN(Cc3cc(-c4cccc(OC)c4)c4nc(C)c(=O)[nH]c4c3)CC2)c(F)n1` [Example 73] gave an IC50 against PARP2 of 2680 nM. For the same compound, at PARP1, the IC50 turned out to be 5.7 nM and the “Selectivity PARP2/PARP1” value is given as 472.0.

(Values after patent EP4755880A1, “SUBSTITUTED NITROGEN-CONTAINING BICYCLIC COMPOUND AND USE THEREOF” (Sunshine Lake Pharma Co., Ltd., priority 2023, dated 2025).)
